The half-life is the time needed for the level to fall by half in the phase considered. Broadly, the bioavailability is the share of a dose that reaches the circulation, judged against a reference dose that is usually intravenous. As usually defined, the inhibition is how much of the control response was suppressed. What is called IC50 is the midpoint of a concentration-inhibition curve. The inhibition in vivo is the change of the read-out against control, counted positive when it falls.

In data set [1] the test system is Rattus norvegicus. The data set is described as follows: Antihypertensive activity in spontaneously hypertensive rat assessed as change in systolic blood pressure at 300 mg/kg, po. Type of data set: functional, organism-based. More on the design: dose 300 mg/kg. Conditions: Artery.
For data set [2], the system named is Rattus norvegicus. The data set can be described thus: Antihypertensive activity in spontaneously hypertensive rat assessed as change in diastolic blood pressure at 300 mg/kg, po. Type of data set: functional, organism-based. More on the design: dose 300 mg/kg. Conditions: Artery.
Data set [3] relates to Rattus norvegicus. The data set is described as follows: Antihypertensive activity in spontaneously hypertensive rat assessed as change in heart rate at 300 mg/kg, po. More on the design: dose 300 mg/kg. Type of data set: functional, organism-based.
Data set [4] has as its system Rattus norvegicus. The data set is described as follows: Antihypertensive activity in spontaneously hypertensive rat assessed as change in pulse pressure at 300 mg/kg, po. In kind it is functional, organism-based. Details: dose 300 mg/kg.
Data set [5] is described as follows: Clearance in rat at 1 mg/kg, iv and 2 mg/kg, po. Conditions: in vivo. In kind it is ADME, organism-based.
Data set [6] in a line: Half life in rat at 1 mg/kg, iv and 2 mg/kg, po. Type of data set: ADME, organism-based. Conditions: in vivo.
Data set [7] can be described thus: Volume of distribution at steady state in rat at 1 mg/kg, iv and 2 mg/kg, po. In kind it is ADME, organism-based. Conditions: in vivo, read-out: Vdss.
Data set [8] is described as follows: Bioavailability in rat at 1 mg/kg, iv and 2 mg/kg, po. In kind it is ADME, organism-based. Conditions: in vivo.
The subject of another data set is Blood. The data set can be described thus: Inhibition of DHET production in rat whole blood at 1 uM after 1 hr. Details: Activity: scale not given: the % may be the effect or the level left. In kind it is functional.
In a further data set the target is Cytochrome P450 2D6 (Homo sapiens, UniProt P10635). The data set can be described thus: Inhibition of CYP2D6. Type of data set: ADME.
Data set [9] has as its target T1, Bifunctional epoxide hydrolase 2 (Homo sapiens, UniProt P34913).
T1 sequence (P34913 whole entry): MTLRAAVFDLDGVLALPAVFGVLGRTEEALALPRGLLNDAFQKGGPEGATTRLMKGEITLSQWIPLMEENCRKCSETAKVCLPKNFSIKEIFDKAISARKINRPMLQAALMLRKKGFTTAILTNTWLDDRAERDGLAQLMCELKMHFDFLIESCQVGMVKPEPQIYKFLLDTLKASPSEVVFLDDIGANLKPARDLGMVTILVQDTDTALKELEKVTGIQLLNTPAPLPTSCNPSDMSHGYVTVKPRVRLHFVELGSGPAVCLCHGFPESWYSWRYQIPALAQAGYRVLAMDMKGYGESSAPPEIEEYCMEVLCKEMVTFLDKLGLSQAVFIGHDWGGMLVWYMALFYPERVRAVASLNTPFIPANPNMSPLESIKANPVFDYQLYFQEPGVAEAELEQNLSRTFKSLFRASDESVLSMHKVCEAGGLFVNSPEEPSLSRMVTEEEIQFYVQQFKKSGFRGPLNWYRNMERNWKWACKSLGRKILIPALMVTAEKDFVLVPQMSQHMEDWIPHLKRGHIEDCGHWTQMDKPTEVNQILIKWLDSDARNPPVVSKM
The data set is described as follows: Inhibition of human soluble epoxide hydrolase in HEK293 cells assessed as DHET production. In kind it is cell-based.

For data set [10], the target named is T1, Bifunctional epoxide hydrolase 2. The data set is described as follows: Inhibition of human soluble epoxide hydrolase.
A short description of data set [11]: Inhibition of potassium channel IKr.
Data set [12] deals with T2, Bifunctional epoxide hydrolase 2 (Rattus norvegicus, UniProt P80299).
T2 sequence (P80299 whole entry): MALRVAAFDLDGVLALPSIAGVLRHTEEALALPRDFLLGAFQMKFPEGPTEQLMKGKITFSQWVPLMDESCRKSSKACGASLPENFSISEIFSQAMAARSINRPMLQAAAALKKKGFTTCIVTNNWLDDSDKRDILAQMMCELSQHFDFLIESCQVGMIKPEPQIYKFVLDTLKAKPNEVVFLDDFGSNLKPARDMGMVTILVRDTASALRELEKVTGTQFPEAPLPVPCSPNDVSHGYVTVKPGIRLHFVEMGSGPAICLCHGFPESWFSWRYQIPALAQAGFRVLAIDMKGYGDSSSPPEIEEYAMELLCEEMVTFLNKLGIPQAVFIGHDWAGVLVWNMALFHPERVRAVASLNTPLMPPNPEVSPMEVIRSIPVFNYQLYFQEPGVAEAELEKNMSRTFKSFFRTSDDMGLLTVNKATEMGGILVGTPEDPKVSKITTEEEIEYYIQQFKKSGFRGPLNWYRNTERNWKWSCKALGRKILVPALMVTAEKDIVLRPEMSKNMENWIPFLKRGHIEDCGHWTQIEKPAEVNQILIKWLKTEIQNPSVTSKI
The data set can be described thus: Inhibition of rat soluble epoxide hydrolase.

A further data set has as its target Cytochrome P450 3A4 (Homo sapiens, UniProt P08684). The data set is described as follows: Inhibition of CYP3A4. Type of data set: ADME.
Data set [13] addresses Sodium channel protein type 5 subunit alpha (Homo sapiens, UniProt Q14524). The data set can be described thus: Inhibition of Voltage-gated sodium channel subunit alpha Nav1.5.
Another data set concerns the target T3, Epoxide hydrolase 1 (Homo sapiens, UniProt P07099).
T3 sequence (P07099 whole entry): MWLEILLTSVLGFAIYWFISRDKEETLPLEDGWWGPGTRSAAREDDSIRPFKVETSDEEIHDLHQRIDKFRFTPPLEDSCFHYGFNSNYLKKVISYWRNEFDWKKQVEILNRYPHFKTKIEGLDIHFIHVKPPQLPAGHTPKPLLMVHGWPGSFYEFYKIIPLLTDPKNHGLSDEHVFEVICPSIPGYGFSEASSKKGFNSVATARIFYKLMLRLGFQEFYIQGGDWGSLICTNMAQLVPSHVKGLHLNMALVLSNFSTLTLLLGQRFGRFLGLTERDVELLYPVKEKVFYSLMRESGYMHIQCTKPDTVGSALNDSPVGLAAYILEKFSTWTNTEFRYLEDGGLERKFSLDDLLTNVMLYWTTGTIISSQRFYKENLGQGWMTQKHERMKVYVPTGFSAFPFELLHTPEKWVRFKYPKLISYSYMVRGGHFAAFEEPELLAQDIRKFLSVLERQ
The data set is described as follows: Inhibition of human microsomal epoxide hydrolase.

In data set [14] the target is Voltage-dependent L-type calcium channel subunit alpha-1C (Homo sapiens, UniProt Q13936). The data set can be described thus: Activity at Cav 1.2 channel.
The target in a further data set is Cytochrome P450 2C9 (Homo sapiens, UniProt P11712). The data set can be described thus: Inhibition of CYP2C9. In kind it is ADME.
Data set [15] in a line: Binding affinity to […] channel diltiazem binding site.
The nature of data set [16]: Plasma concentration in spontaneously hypertensive rat plasma at 300 mg/kg, after 2 hrs. Type of data set: ADME, organism-based. Details: dose 300 mg/kg.
Data set [17] concerns Rattus norvegicus. The data set can be described thus: Ex vivo inhibition of DHET production in spontaneously hypertensive rat plasma at 50 mg/kg, po after 0.5 to 6 hrs. In kind it is functional.
Data set [18] in a line: Plasma concentration in spontaneously hypertensive rat plasma at 300 mg/kg, after 5 hrs. Type of data set: ADME, organism-based. Details: dose 300 mg/kg.
The subject of data set [19] is Rattus norvegicus. The data set can be described thus: Plasma concentration in spontaneously hypertensive rat plasma at 50 mg/kg, po. In kind it is ADME, organism-based. Details: dose 50 mg/kg, route oral. Conditions: in vivo.
Data set [20] is described as follows: Plasma concentration in spontaneously hypertensive rat plasma at 300 mg/kg, after 24 hrs. Type of data set: ADME, organism-based. More on the design: dose 300 mg/kg.

The source made the active and inactive calls.

Chain of Sodium channel protein type 5 subunit alpha (Q14524 whole entry): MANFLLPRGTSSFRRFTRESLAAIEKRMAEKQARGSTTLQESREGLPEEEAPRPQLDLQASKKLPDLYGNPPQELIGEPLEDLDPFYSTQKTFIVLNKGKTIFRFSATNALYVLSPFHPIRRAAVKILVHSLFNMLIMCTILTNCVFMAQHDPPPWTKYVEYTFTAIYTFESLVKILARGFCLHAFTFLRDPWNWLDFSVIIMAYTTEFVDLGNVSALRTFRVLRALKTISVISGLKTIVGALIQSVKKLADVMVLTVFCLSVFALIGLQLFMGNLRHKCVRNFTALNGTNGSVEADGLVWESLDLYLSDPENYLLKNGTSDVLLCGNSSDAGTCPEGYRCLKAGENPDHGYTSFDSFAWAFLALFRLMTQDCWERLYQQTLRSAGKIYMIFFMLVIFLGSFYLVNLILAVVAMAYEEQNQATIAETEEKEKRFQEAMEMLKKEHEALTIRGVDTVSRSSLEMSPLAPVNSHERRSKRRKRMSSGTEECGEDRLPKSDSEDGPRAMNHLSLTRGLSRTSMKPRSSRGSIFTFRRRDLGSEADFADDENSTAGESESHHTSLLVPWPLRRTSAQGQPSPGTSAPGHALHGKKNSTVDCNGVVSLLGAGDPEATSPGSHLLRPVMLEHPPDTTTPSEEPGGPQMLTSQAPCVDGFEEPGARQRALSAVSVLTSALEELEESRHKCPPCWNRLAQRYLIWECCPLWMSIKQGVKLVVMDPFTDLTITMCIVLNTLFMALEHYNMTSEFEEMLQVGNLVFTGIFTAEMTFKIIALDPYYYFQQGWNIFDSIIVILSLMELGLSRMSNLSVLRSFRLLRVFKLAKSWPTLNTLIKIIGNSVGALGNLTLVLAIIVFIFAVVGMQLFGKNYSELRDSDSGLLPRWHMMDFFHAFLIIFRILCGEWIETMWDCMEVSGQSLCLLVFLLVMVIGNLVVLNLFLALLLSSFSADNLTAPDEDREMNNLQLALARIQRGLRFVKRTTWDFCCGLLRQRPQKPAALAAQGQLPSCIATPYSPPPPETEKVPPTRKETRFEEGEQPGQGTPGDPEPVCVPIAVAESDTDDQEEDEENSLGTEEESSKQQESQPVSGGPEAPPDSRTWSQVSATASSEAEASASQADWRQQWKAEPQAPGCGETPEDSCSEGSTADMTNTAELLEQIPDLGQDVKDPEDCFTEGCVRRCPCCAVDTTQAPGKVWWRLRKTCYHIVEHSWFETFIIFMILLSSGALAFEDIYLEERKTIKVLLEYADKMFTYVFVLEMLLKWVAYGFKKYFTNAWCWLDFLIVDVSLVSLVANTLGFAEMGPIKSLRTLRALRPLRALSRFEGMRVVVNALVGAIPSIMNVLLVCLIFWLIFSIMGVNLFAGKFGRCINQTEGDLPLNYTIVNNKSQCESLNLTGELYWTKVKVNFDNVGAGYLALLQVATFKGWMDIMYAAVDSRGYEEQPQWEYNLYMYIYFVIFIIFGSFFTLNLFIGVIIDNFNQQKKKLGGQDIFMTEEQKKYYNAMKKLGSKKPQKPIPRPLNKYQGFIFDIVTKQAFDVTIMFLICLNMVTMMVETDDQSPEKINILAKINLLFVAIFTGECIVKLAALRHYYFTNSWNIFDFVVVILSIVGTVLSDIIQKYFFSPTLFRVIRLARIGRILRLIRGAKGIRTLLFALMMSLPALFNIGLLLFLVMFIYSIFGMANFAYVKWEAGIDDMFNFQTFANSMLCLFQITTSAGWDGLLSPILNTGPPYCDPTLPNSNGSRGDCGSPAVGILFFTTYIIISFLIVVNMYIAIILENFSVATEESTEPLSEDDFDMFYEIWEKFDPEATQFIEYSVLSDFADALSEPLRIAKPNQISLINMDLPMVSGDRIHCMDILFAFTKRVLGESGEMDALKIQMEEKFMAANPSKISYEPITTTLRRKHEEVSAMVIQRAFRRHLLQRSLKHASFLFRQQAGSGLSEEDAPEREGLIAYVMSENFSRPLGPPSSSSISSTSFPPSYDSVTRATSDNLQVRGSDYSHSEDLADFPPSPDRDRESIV
Chain of Cytochrome P450 3A4 (P08684 whole entry): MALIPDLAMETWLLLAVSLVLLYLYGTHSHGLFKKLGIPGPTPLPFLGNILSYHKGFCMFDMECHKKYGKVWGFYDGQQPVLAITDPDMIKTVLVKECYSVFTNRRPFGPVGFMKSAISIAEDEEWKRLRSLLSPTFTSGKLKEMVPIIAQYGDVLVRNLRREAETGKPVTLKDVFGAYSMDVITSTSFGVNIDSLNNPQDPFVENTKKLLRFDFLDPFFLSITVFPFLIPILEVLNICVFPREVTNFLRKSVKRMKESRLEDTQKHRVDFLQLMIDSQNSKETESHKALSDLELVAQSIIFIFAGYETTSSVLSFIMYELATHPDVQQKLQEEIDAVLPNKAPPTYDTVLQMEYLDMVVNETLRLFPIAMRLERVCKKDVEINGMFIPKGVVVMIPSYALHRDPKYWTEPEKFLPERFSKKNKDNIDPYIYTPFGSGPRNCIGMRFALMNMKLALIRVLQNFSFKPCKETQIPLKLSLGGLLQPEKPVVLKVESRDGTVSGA
Chain of Cytochrome P450 2D6 (P10635 whole entry): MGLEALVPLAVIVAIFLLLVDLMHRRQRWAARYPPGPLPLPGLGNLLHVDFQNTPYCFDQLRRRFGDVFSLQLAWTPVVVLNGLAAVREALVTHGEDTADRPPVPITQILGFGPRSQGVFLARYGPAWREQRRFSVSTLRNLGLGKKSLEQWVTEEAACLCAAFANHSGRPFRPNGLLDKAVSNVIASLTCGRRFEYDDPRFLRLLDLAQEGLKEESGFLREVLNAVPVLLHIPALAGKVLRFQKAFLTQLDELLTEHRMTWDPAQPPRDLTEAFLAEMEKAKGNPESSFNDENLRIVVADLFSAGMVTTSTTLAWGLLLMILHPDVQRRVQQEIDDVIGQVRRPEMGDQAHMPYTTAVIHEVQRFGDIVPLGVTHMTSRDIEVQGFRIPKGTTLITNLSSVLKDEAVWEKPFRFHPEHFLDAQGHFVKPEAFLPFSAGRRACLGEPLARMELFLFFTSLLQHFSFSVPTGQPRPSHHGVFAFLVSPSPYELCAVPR
Chain of Cytochrome P450 2C9 (P11712 whole entry): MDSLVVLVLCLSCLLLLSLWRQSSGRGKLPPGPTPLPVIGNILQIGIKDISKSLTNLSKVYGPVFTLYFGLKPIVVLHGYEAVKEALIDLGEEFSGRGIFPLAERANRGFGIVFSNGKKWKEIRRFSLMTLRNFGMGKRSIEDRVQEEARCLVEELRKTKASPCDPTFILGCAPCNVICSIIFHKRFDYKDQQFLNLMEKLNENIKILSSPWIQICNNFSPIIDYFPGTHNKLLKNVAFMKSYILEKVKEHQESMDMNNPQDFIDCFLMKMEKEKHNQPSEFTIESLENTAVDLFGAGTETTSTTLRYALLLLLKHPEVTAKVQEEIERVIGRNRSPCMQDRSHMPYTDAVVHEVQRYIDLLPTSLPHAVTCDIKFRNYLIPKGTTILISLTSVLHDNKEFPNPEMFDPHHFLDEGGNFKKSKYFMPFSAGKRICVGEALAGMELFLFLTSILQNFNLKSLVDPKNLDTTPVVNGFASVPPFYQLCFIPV

For `O=C1CC2(CCN(C(=O)N[C@H]3C[C@@H]3c3ccccc3)CC2)Oc2ccccc21` (racemic) [listing 1 of 2 here], the result with Rattus norvegicus [1], in the data set on Rattus norvegicus [2], in the data set with Rattus norvegicus [3] and in the data set on Rattus norvegicus [4] was inactive.
With `CS(=O)(=O)c1ccc2c(c1)CCC1(CCN(C(=O)N[C@H]3C[C@@H]3c3ccccc3)CC1)O2.Cl` (racemic), in [5], the clearance stood at 0.7 mL/min/kg. The compound further had a half-life in [6] of 3.9 h. For the same compound, the Vd in data set [7] stood at 0.23 L/kg. The same compound displayed a bioavailability in data set [8] of 86%. Further, the inhibition at 1 µM in the data set on Blood (Rattus norvegicus, Blood, 1 h) worked out at 32%.
Turning to `O=C1CC2(CCN(C(=O)N[C@H]3C[C@@H]3c3ccccc3)CC2)Oc2cccnc21` (relative stereo), the IC50 is > 10 µM at Cytochrome P450 2D6; 0.004 µM in [9]; 0.008 µM in [10]; > 30 µM in [11]; 0.02 µM in data set [12]; > 10 µM at Cytochrome P450 3A4. The 50% inhibitory concentration (IC50) in data set [13] was > 10 µM; against Epoxide hydrolase 1, > 100 µM; in data set [14] it was > 30 µM. In the data set with Blood, the Activity worked out at 12%.
As for `CS(=O)(=O)c1ccc2c(c1)C(=O)CC1(CCN(C(=O)N[C@H]3C[C@@H]3c3ccccc3)CC1)O2` (racemic), the 50% inhibitory concentration (IC50) against Cytochrome P450 2D6 was > 10 µM; in data set [10], 0.004 µM; at Cytochrome P450 2C9, > 10 µM; in [11] it was 4 µM; in data set [12] it was 0.012 µM; against Cytochrome P450 3A4, > 10 µM. For the same compound, the values for the IC50 in data set [13] and in data set [15] were > 10 µM and > 26 µM, respectively. For the same compound, in [5], the clearance was found to be 1 mL/min/kg. Further, the half-life in [6] was 2.6 h. For the same compound, the Vd in [7] worked out at 0.2 L/kg. This compound also had a bioavailability in data set [8] of 49%.
Turning to `CS(=O)(=O)c1ccc2c(c1)CCC1(CCN(C(=O)c3ccc(C(F)(F)F)cc3)CC1)O2`, the IC50 at Cytochrome P450 2D6 is > 10 µM; in data set [9], < 0.001 µM; in data set [10], 0.002 µM; against Cytochrome P450 2C9, 7.6 µM; in data set [11], 25 µM; in data set [12], 0.019 µM. Also, the IC50 was > 10 µM on Cytochrome P450 3A4, > 10 µM in data set [13], > 30 µM in data set [15] and > 100 µM against Epoxide hydrolase 1. In data set [5], this compound registered a clearance of 0.9 mL/min/kg. The same compound showed a half-life in data set [6] of 18 h. For the same compound, the Vd in [7] is 1.6 L/kg. In data set [8], the bioavailability amounted to 61%. The compound further came in with an Activity in the data set on Blood of 66%.
On to `O=C(N[C@H]1C[C@@H]1c1ccccc1)N1CCC2(CCc3ncccc3O2)CC1` (relative stereo), for which the IC50 was > 10 µM against Cytochrome P450 2D6; < 0.001 µM in data set [9]; 0.005 µM in data set [10]; > 10 µM against Cytochrome P450 2C9; > 30 µM in data set [11]; 0.021 µM in data set [12]. For the same compound, the IC50 against Cytochrome P450 3A4 is > 10 µM; in data set [13], > 10 µM; on Epoxide hydrolase 1, > 100 µM; in data set [14], 20 µM. The compound further came in with an Activity in the data set with Blood of 9.2%.
For the compound `CS(=O)(=O)c1ccc2c(c1)CCC1(CCN(C(=O)Cc3ccc(Cl)cc3Cl)CC1)O2`, in [5], the clearance was 0.7 mL/min/kg. In addition, the IC50 in [11] is 0.8 µM; in data set [12] it was 0.004 µM; in data set [15], > 30 µM. Besides, the half-life in data set [6] is 2.6 h. Also, in data set [7], the Vd was found to be 0.15 L/kg. Besides, the bioavailability in [8] came to 67%.
For `O=C1CC2(CCN(C(=O)N[C@H]3C[C@@H]3c3ccccc3)CC2)Oc2ccccc21` (racemic) [listing 2 of 2 here], the clearance in data set [5] stood at 47 mL/min/kg. For the same compound, the concentration at 2 h in data set [16] is 3600 nM. Moreover, the half-life in data set [6] was 1.5 h. Further, in data set [7], the Vd was 3.1 L/kg. The inhibition in vivo at 50 mg/kg in the data set with Rattus norvegicus [17] is > 95%. This compound gave a concentration at 5 h in data set [18] of 2700 nM. This compound also returned a concentration in the data set with Rattus norvegicus [19] of 800 nM. Besides, the bioavailability in data set [8] worked out at 61%. The compound further showed an Activity in the data set on Blood of 8.6%. Besides, the concentration at 24 h in data set [20] stood at 1700 nM.

The values above are taken from ChEMBL document CHEMBL1137005 (Bioorg Med Chem Lett, 2009).
